Source: US6534524B1, “Indazole compounds and pharmaceutical compositions for inhibiting protein kinases, and methods for their use” (Agouron Pharmaceuticals, Inc., priority 1999, dated 2003)
Where two headings read alike, the source gives them in different places.

Tests used:
human FGF-R1 = human FGF-R1 (Homo sapiens, UniProt P11362, C488A/C584S/L457V); test: FGF-R spectrophotometric assay
[1] = target: unphosphorylated VEGF-R2Δ50 (FLVK) (Homo sapiens, UniProt P35968, DEL940-989/E990V); test: VEGF-R2 coupled spectrophotometric assay, unphosphorylated VEGF-R2Δ50 (FLVK); settings: FLVK Ki, Table 1
Chain of unphosphorylated VEGF-R2Δ50 (FLVK) (P35968 with tags, fused parts or gaps DEL940-989/E990V limits assumed): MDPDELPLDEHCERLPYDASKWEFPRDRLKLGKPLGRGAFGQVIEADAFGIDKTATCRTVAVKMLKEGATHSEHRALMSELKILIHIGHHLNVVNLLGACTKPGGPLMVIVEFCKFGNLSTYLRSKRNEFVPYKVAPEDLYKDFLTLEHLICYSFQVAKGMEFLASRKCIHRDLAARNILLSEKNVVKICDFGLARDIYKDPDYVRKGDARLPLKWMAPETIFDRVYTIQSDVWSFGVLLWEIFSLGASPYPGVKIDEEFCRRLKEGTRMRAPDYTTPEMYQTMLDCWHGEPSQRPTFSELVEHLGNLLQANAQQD

[2] = Human liver microsome (HLM) assay; type: in vitro ADME; settings: human liver microsomes, 5 μM test compound
In short: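 LC-MS quantified test compound remaining after 0 and 2 h incubation with human liver microsomes. Triplicate samples, clarified by 10 min centrifugation at 14000 g.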

[3] = Determination of inhibitor concentration in mouse plasma after intraperitoneal and oral dosing; type: in vivo; settings: for concentration at 7 h: female
In short: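 Plasma levels quantified by HPLC or LC-MS using a standard curve prepared in mouse plasma, following ethyl acetate extraction with internal standard and sodium hydroxide. Sampling at 0.5, 1, 4 h (ocular bleed) and 7 h (cardiac puncture) after oral or intraperitoneal dosing.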

[4] = tested on: human umbilical vein endothelial cells (HUVEC); test: HUVEC proliferation assay (VEGF-stimulated, MTT); type: cell-based; settings: Homo sapiens, HUVEC, + albumin; read-out: HUVEC + albumin IC50
[5] = IP, 25 mg/kg, vehicle PEG400:H2O pH 2.3 60:40
[6] = PO, 50 mg/kg, vehicle PEG400:H2O pH 2.3 60:40
[7] = PO, 25 mg/kg, vehicle PEG400:H2O pH 2.3 30:70
[8] = PO, 25 mg/kg, vehicle PEG400:H2O pH 2.3 30:70, read-out: Cmin (7 hr conc.)

Chain of human FGF-R1 (P11362 456-766 L457V/C488A/C584S): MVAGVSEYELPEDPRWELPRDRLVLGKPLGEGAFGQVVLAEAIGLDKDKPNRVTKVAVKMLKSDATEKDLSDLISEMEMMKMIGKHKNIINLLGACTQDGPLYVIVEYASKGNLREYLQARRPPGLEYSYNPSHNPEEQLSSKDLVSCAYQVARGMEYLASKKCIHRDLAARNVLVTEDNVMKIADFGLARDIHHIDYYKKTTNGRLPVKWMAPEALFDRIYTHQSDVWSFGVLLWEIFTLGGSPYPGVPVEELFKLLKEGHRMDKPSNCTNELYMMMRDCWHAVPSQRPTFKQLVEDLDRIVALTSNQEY

| Structure (SMILES) | Ki (human FGF-R1) [nM] | Ki [1] [nM] | % remain (HLM, 2 h) [2] [%] | AUClast [3, 5] [ng·h/mL] | plasma half-life (T1/2) [3, 5] [h] | AUClast [3, 6] [ng·h/mL] | plasma half-life (T1/2) [3, 6] [h] | concentration at 7 h ([3]; IP, 25 mg/kg, vehicle PEG400:H2O pH 2.3 60:40, read-out: Cmin (7 hr conc.)) [ng/mL] | concentration at 7 h ([3]; PO, 50 mg/kg, vehicle PEG400:H2O pH 2.3 60:40, read-out: Cmin (7 hr conc.)) [ng/mL] | AUClast [3, 7] [ng·h/mL] | Cmax [3, 7] [ng/mL] | plasma half-life (T1/2) [3, 7] [h] | concentration at 7 h [3, 8] [ng/mL] | IC50 [4] [nM] |
| --- | --- | --- | --- | --- | --- | --- | --- | --- | --- | --- | --- | --- | --- | --- |
| CN(c1cccc(N)c1)c1ccc2c(/C=C/c3ccccc3)n[nH]c2c1 [Example 11, N-Methyl-N-(3-styryl-1H-indazol-6-yl)-benzene-1,3-diamine] | 34000 | 12 |  |  |  |  |  |  |  |  |  |  |  |  |
| O=C(Nc1cccc(Cl)c1)c1ccccc1Sc1ccc2c(/C=C/c3ccccn3)n[nH]c2c1 [Example 33(d), 6-[2-(3-Chlorophenylcarbamoyl)phenylsulfanyl]-3-E-[2-(pyridin-2-yl)ethenyl]-1H-indazole] | 24 | 0.14 | 22 | 5080 | 1.6 | 4744 | 0.9 | 113 | 8 |  |  |  |  |  |
| O=C(NNc1ccccn1)c1ccccc1Sc1ccc2c(/C=C/c3ccccn3)n[nH]c2c1 [Example 35(n)] | 92 | 0.83 | 47 |  |  |  |  |  |  | 4818 | 3545 | 1.4 | 55 |  |
| CONC(=O)c1ccccc1Sc1ccc2c(/C=C/c3ccccn3)n[nH]c2c1 [Example 35(r), 6-[2-(Methoxycarbamoyl)phenylsulfanyl]-3-E-[2-(pyridin-2-yl)ethenyl]-1H-indazole] | 20 | 0.11 | 51 |  |  |  |  |  |  | 4261 |  | 1.3 | 67 |  |
| C=CCn1nc(C)cc1C(=O)Nc1cc(C(=O)c2ccc3c(/C=C/c4ccccn4)n[nH]c3c2)ccc1C [Example 41(ff), 6-[3-((1-Allyl-3-methyl-1H-pyrazol-5-yl)carboxamido)-4-methylbenzoyl]-3-E-[2-(pyridin-2-yl)ethenyl]-1H-indazole] | 12 |  | 68 |  |  |  |  |  |  | 9176 |  | 2.0 | 410 |  |
| CC(=O)Nc1cc(C(=O)c2ccc3c(/C=C/c4ccccn4)n[nH]c3c2)ccc1C [Example 41(gg), 6-(3-Acetamido-4-methylbenzoyl)-3-E-[2-(pyridin-2-yl)ethenyl]-1H-indazole] | 3.5 |  |  |  |  |  |  |  |  | 2692 | 2079 | 1.1 | 29 |  |
| Cc1cc(C(=O)Nc2cccc(C(=O)c3ccc4c(/C=C/c5ccccn5)n[nH]c4c3)c2)n(C(C)C)n1 [Example 41(x), 6-[3-((1-Isopropyl-3-methyl-1H-pyrazol-5-yl)carboxamido)benzoyl]-3-E-[2-(pyridin-2-yl)ethenyl]-1H-indazole] | 3.4 |  |  |  |  |  |  |  |  | 24174 | 4587 | 4.2 | 1270 |  |
| CCn1nc(C)cc1C(=O)Nc1cc(Nc2ccc3c(/C=C/c4ccccn4)n[nH]c3c2)c(F)cc1C [Example 48(a), 6-[N-(5-((1-Ethyl-3-methyl-1H-pyrazol-5-yl)carboxanido)-2-fluoro-4-methylphenyl)amino]-3-E-[2-(pyridin-2-yl)ethenyl]-1H-indazole] | 14 | 0.37 | 55 |  |  |  |  |  |  |  |  |  |  | 8.8 |
